Source: patent publication US20180110754A1, “CENICRIVIROC FOR THE TREATMENT OF FIBROSIS” (Tobira Therapeutics, Inc., priority 2015, published 2018)

Legend:
APRI and FIB-4 scores = test: Study 202 post-hoc APRI and FIB-4 fibrosis index scores; assay type: in vivo, human
Description: APRI and FIB-4 scores were calculated. Change in score category from baseline (BL) to Weeks 24 and 48 was assessed in patients with non-missing data. Correlations between changes from BL in APRI and FIB-4 scores, and MCP-1 (CCR2 ligand) and sCD14 (inflammatory biomarker) levels were evaluated.

HIV-1 = test: Study 202 Phase 2b: virologic response (HIV-1 RNA <50 copies/mL, FDA Snapshot); assay type: in vivo, human
From the text: Subjects with a history of HIV-2, hepatitis B and/or C, cirrhosis of the liver or any known active or chronic active liver disease were excluded from the study.
The primary efficacy endpoint was virologic response at Week 24, defined as HIV-1 RNA<50 copies/mL using the FDA Snapshot Algorithm.

[1] = Study 202: fasting metabolic laboratory parameters; assay type: in vivo; settings: for Any graded (Grade 1-4) fasting laboratory abnormality, n subjects / Fasting LDL cholesterol abnormality, any grade, n subjects / Fasting LDL cholesterol, worst Grade 1, n subjects / Fasting LDL cholesterol, worst Grade 2, n subjects / Fasting LDL cholesterol, worst Grade 3, n subjects / Fasting LDL cholesterol, worst Grade 4, n subjects / Fasting glucose (serum, high) abnormality, any grade, n subjects / Fasting glucose (serum, high), worst Grade 1, n subjects / Fasting glucose (serum, high), worst Grade 2, n subjects / Fasting glucose (serum, high), worst Grade 3, n subjects / Fasting glucose (serum, high), worst Grade 4, n subjects / Fasting laboratory abnormality, worst Grade 1, n subjects / Fasting laboratory abnormality, worst Grade 2, n subjects / Fasting laboratory abnormality, worst Grade 3, n subjects / Fasting laboratory abnormality, worst Grade 4, n subjects / Fasting total cholesterol abnormality, any grade, n subjects / Fasting total cholesterol, worst Grade 1, n subjects / Fasting total cholesterol, worst Grade 2, n subjects / Fasting total cholesterol, worst Grade 3, n subjects / Fasting total cholesterol, worst Grade 4, n subjects / Fasting triglycerides abnormality, any grade, n subjects / Fasting triglycerides, worst Grade 1, n subjects / Fasting triglycerides, worst Grade 2, n subjects / Fasting triglycerides, worst Grade 3, n subjects / Fasting triglycerides, worst Grade 4, n subjects: through Week 48
From the text: All abnormalities in total cholesterol, LDL cholesterol, triglycerides, or glucose were Grade 1 or Grade 2.
Mean baseline values and changes from baseline in HbA1c, HOMA-IR, fasting LDL, fasting HDL, fasting total cholesterol, fasting total cholesterol/HDL ratio, and fasting triglycerides are shown in Table 36.

[2] = All CVC (N = 115), EFV (N = 28)

CCCCOCCOc1ccc(-c2ccc3c(c2)/C=C(/C(=O)Nc2ccc([S@@+]([O-])Cc4cncn4CCC)cc2)CCCN3CC(C)C)cc1 [CVC, (S)-8-[4-(2-Butoxyethoxy)phenyl]-1-isobutyl-N-(4-{[(1-propyl-1H-imidazol-5-yl)methyl]sulfinyl}phenyl)-1,2,3,4-tetrahydro-1-benzazocine-5-carboxamide]
Patients in APRI category 0.5-1.5 (APRI and FIB-4 scores; Baseline): 14%
Patients in APRI category >1.5 (APRI and FIB-4 scores; Baseline): 2%
Patients in FIB-4 category 1.45-3.25 (APRI and FIB-4 scores; Baseline): 17%
Patients in FIB-4 category <1.45 (APRI and FIB-4 scores; Baseline): 82%
Patients in FIB-4 category >3.25 (APRI and FIB-4 scores; Baseline): 1%
Patients in APRI category <0.5 (APRI and FIB-4 scores; Baseline, CVC pooled 100/200 mg or EFV): 84%
Patients in APRI category 0.5-1.5 (APRI and FIB-4 scores; Week 24): 7%
Patients in APRI category <0.5 (APRI and FIB-4 scores; Week 24): 93%
Patients in FIB-4 category 1.45-3.25 (APRI and FIB-4 scores; Week 24): 7%
Patients in FIB-4 category <1.45 (APRI and FIB-4 scores; Week 24): 93%
Patients with APRI decreased 1 category from baseline (APRI and FIB-4 scores; Week 24): 14%
Patients with FIB-4 decreased 1 category from baseline (APRI and FIB-4 scores; Week 24): 13%
Patients in APRI category 0.5-1.5 (APRI and FIB-4 scores; Week 48): 8%
Patients in APRI category <0.5 (APRI and FIB-4 scores; Week 48): 91%
Patients in APRI category >1.5 (APRI and FIB-4 scores; Week 48): 1%
Patients in FIB-4 category 1.45-3.25 (APRI and FIB-4 scores; Week 48): 5%
Patients in FIB-4 category <1.45 (APRI and FIB-4 scores; Week 48): 94%
Patients in FIB-4 category >3.25 (APRI and FIB-4 scores; Week 48): 1%
Patients with APRI decreased 1 category from baseline (APRI and FIB-4 scores; Week 48): 10%
Patients with FIB-4 decreased 1 category from baseline (APRI and FIB-4 scores; Week 48): 14%
Subjects with improvements in APRI and FIB-4 scores over time (APRI and FIB-4 scores; all CVC-treated subjects (pooled 100 mg and 200 mg)): ≥ 10%
Virologic success (HIV-1 RNA <50 copies/mL) (HIV-1; CVC 100 mg + FTC/TDF, Week 24): 76%
Virologic success (HIV-1 RNA <50 copies/mL) (HIV-1; CVC 100 mg + FTC/TDF, Week 48): 68%
Virologic success (HIV-1 RNA <50 copies/mL) (HIV-1; CVC 200 mg + FTC/TDF, Week 24): 73%
Virologic success (HIV-1 RNA <50 copies/mL) (HIV-1; CVC 200 mg + FTC/TDF, Week 48): 64%
Any graded (Grade 1-4) fasting laboratory abnormality, n subjects [1, 2]: 16
Fasting LDL cholesterol abnormality, any grade, n subjects [1, 2]: 6
Fasting LDL cholesterol, worst Grade 1, n subjects [1, 2]: 3
Fasting LDL cholesterol, worst Grade 2, n subjects [1, 2]: 3
Fasting LDL cholesterol, worst Grade 3, n subjects [1, 2]: 0
Fasting LDL cholesterol, worst Grade 4, n subjects [1, 2]: 0
Fasting glucose (serum, high) abnormality, any grade, n subjects [1, 2]: 5
Fasting glucose (serum, high), worst Grade 1, n subjects [1, 2]: 3
Fasting glucose (serum, high), worst Grade 2, n subjects [1, 2]: 2
Fasting glucose (serum, high), worst Grade 3, n subjects [1, 2]: 0
Fasting glucose (serum, high), worst Grade 4, n subjects [1, 2]: 0
Fasting laboratory abnormality, worst Grade 1, n subjects [1, 2]: 9
Fasting laboratory abnormality, worst Grade 2, n subjects [1, 2]: 7
Fasting laboratory abnormality, worst Grade 3, n subjects [1, 2]: 0
Fasting laboratory abnormality, worst Grade 4, n subjects [1, 2]: 0
Fasting total cholesterol abnormality, any grade, n subjects [1, 2]: 8
Fasting total cholesterol, worst Grade 1, n subjects [1, 2]: 5
Fasting total cholesterol, worst Grade 2, n subjects [1, 2]: 3
Fasting total cholesterol, worst Grade 3, n subjects [1, 2]: 0
Fasting total cholesterol, worst Grade 4, n subjects [1, 2]: 0
Fasting triglycerides abnormality, any grade, n subjects [1, 2]: 1
Fasting triglycerides, worst Grade 1, n subjects [1, 2]: 0
Fasting triglycerides, worst Grade 2, n subjects [1, 2]: 1
Fasting triglycerides, worst Grade 3, n subjects [1, 2]: 0
Fasting triglycerides, worst Grade 4, n subjects [1, 2]: 0
Any graded (Grade 1-4) fasting laboratory abnormality, n subjects ([1]; CVC 100 mg (N = 58)): 4 (7%)
Fasting LDL cholesterol abnormality, any grade, n subjects ([1]; CVC 100 mg (N = 58)): 2 (3%)
Fasting LDL cholesterol, worst Grade 1, n subjects ([1]; CVC 100 mg (N = 58)): 1 (2%)
Fasting LDL cholesterol, worst Grade 2, n subjects ([1]; CVC 100 mg (N = 58)): 1 (2%)
Fasting LDL cholesterol, worst Grade 3, n subjects ([1]; CVC 100 mg (N = 58)): 0
Fasting LDL cholesterol, worst Grade 4, n subjects ([1]; CVC 100 mg (N = 58)): 0
Fasting glucose (serum, high) abnormality, any grade, n subjects ([1]; CVC 100 mg (N = 58)): 0
Fasting glucose (serum, high), worst Grade 1, n subjects ([1]; CVC 100 mg (N = 58)): 0
Fasting glucose (serum, high), worst Grade 2, n subjects ([1]; CVC 100 mg (N = 58)): 0
Fasting glucose (serum, high), worst Grade 3, n subjects ([1]; CVC 100 mg (N = 58)): 0
Fasting glucose (serum, high), worst Grade 4, n subjects ([1]; CVC 100 mg (N = 58)): 0
Fasting laboratory abnormality, worst Grade 1, n subjects ([1]; CVC 100 mg (N = 58)): 3 (5%)
Fasting laboratory abnormality, worst Grade 2, n subjects ([1]; CVC 100 mg (N = 58)): 1 (2%)
Fasting laboratory abnormality, worst Grade 3, n subjects ([1]; CVC 100 mg (N = 58)): 0
Fasting laboratory abnormality, worst Grade 4, n subjects ([1]; CVC 100 mg (N = 58)): 0
Fasting total cholesterol abnormality, any grade, n subjects ([1]; CVC 100 mg (N = 58)): 3 (5%)
Fasting total cholesterol, worst Grade 1, n subjects ([1]; CVC 100 mg (N = 58)): 3 (5%)
Fasting total cholesterol, worst Grade 2, n subjects ([1]; CVC 100 mg (N = 58)): 0
Fasting total cholesterol, worst Grade 3, n subjects ([1]; CVC 100 mg (N = 58)): 0
Fasting total cholesterol, worst Grade 4, n subjects ([1]; CVC 100 mg (N = 58)): 0
Fasting triglycerides abnormality, any grade, n subjects ([1]; CVC 100 mg (N = 58)): 0
Fasting triglycerides, worst Grade 1, n subjects ([1]; CVC 100 mg (N = 58)): 0
Fasting triglycerides, worst Grade 2, n subjects ([1]; CVC 100 mg (N = 58)): 0
Fasting triglycerides, worst Grade 3, n subjects ([1]; CVC 100 mg (N = 58)): 0
Fasting triglycerides, worst Grade 4, n subjects ([1]; CVC 100 mg (N = 58)): 0
Any graded (Grade 1-4) fasting laboratory abnormality, n subjects ([1]; CVC 200 mg (N = 57)): 12
Fasting LDL cholesterol abnormality, any grade, n subjects ([1]; CVC 200 mg (N = 57)): 4
Fasting LDL cholesterol, worst Grade 1, n subjects ([1]; CVC 200 mg (N = 57)): 2
Fasting LDL cholesterol, worst Grade 2, n subjects ([1]; CVC 200 mg (N = 57)): 2
Fasting LDL cholesterol, worst Grade 3, n subjects ([1]; CVC 200 mg (N = 57)): 0
Fasting LDL cholesterol, worst Grade 4, n subjects ([1]; CVC 200 mg (N = 57)): 0
Fasting glucose (serum, high) abnormality, any grade, n subjects ([1]; CVC 200 mg (N = 57)): 5
Fasting glucose (serum, high), worst Grade 1, n subjects ([1]; CVC 200 mg (N = 57)): 3
Fasting glucose (serum, high), worst Grade 2, n subjects ([1]; CVC 200 mg (N = 57)): 2
Fasting glucose (serum, high), worst Grade 3, n subjects ([1]; CVC 200 mg (N = 57)): 0
Fasting glucose (serum, high), worst Grade 4, n subjects ([1]; CVC 200 mg (N = 57)): 0
Fasting laboratory abnormality, worst Grade 1, n subjects ([1]; CVC 200 mg (N = 57)): 6
Fasting laboratory abnormality, worst Grade 2, n subjects ([1]; CVC 200 mg (N = 57)): 6
Fasting laboratory abnormality, worst Grade 3, n subjects ([1]; CVC 200 mg (N = 57)): 0
Fasting laboratory abnormality, worst Grade 4, n subjects ([1]; CVC 200 mg (N = 57)): 0
Fasting total cholesterol abnormality, any grade, n subjects ([1]; CVC 200 mg (N = 57)): 5
Fasting total cholesterol, worst Grade 1, n subjects ([1]; CVC 200 mg (N = 57)): 2
Fasting total cholesterol, worst Grade 2, n subjects ([1]; CVC 200 mg (N = 57)): 3
Fasting total cholesterol, worst Grade 3, n subjects ([1]; CVC 200 mg (N = 57)): 0
Fasting total cholesterol, worst Grade 4, n subjects ([1]; CVC 200 mg (N = 57)): 0
Fasting triglycerides abnormality, any grade, n subjects ([1]; CVC 200 mg (N = 57)): 1
Fasting triglycerides, worst Grade 1, n subjects ([1]; CVC 200 mg (N = 57)): 0
Fasting triglycerides, worst Grade 2, n subjects ([1]; CVC 200 mg (N = 57)): 1
Fasting triglycerides, worst Grade 3, n subjects ([1]; CVC 200 mg (N = 57)): 0
Fasting triglycerides, worst Grade 4, n subjects ([1]; CVC 200 mg (N = 57)): 0
Fasting HDL, mean change from baseline ([1]; Week 4, All CVC, EFV): -2.92 mg/dL
Fasting LDL, mean change from baseline ([1]; Week 4, All CVC, EFV): -9.72 mg/dL
Fasting total cholesterol, mean change from baseline ([1]; Week 4, All CVC, EFV): -14 mg/dL
Fasting triglycerides, mean change from baseline ([1]; Week 4, All CVC, EFV): -5 mg/dL
HOMA-IR, mean change from baseline ([1]; Week 4, All CVC, EFV): −0.30
HbA1c, mean change from baseline ([1]; Week 4, All CVC, EFV): −0.03 % Hb
Fasting HDL, mean change from baseline ([1]; Week 4, CVC 100 mg): -3.98 mg/dL
Fasting LDL, mean change from baseline ([1]; Week 4, CVC 100 mg): -10.90 mg/dL
Fasting total cholesterol, mean change from baseline ([1]; Week 4, CVC 100 mg): -16 mg/dL
